In assay [1] the target is T1, human FAAH (Fatty Acid Amide Hydrolase) (Homo sapiens, UniProt O00519).
T1 construct: The full length FAAH was subcloned into the mammalian expression vector, pcDEF.neo
T1 sequence (O00519 1-579): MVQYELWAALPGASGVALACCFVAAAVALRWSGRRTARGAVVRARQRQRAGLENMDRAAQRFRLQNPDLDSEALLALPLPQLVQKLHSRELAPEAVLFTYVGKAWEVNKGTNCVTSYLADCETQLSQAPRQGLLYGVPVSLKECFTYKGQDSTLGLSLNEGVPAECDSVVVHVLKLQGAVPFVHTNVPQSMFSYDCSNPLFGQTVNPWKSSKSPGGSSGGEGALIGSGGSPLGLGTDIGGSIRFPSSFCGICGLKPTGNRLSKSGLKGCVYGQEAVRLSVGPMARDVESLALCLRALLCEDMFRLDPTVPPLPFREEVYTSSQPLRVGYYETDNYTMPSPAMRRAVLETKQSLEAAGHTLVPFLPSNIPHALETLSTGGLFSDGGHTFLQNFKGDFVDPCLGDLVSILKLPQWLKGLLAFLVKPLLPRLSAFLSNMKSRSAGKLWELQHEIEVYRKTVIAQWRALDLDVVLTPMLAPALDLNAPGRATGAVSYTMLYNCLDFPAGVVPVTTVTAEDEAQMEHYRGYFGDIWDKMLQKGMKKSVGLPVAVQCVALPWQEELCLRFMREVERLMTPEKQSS
The experiment in a line: FAAH whole cell assay, CHO cells expressing human FAAH. Type of assay: cell-based. The source says: (§1) To assist in assay development stable cell lines for human, murine and rat full length FAAH were developed. Human FAAH cDNA (Accession No: NM_001441.1) was purchased from Origene (Rockville, Md.). The full length FAAH was subcloned into the mammalian expression vector, pcDEF.neo, using XbaI and EcoRI restriction sites and used for stable cell line generation.
(§2) Murine (accession number NM_010173) and Rat FAAH (accession number NM_024132) was amplified by reverse transcriptase polymerase chain reaction (RT-PCR) from brain cDNA (BD Biosciences, San Jose, Calif.) using primers 1 and 2 or primers 1 and 3 respectively (see Table). The resulting PCR product was ligated into pCR4 TOPO and DNA sequence confirmed. The full length murine FAAH was subcloned into the mammalian expression vector, pcDEFneo using either EcoRI (murine) or KpnI and EcoRI (rat) restriction sites. Chinese hamster ovary cells (CHO) were transfected following manufacturers protocol (AMAXA). Forty eight hours post transfection, cells were trypsinized and transferred to 96 well plates in Iscove's DMEM media supplemented with 2 mM Glutamine, 10% fetal calf serum, 1 mg/ml geneticin and HT Supplement (0.1 mM sodium hypoxanthine, 0.016 mM thymidine) in order to isolate single clones. Following selection in geneticin, individual clones were selected and FAAH activity was assessed using a whole cell fluorescent anandamide assay, modified from Ramarao et al (2005). Following removal of tissue culture media cells were dislodged following addition of Cellstripper (Mediatech, Inc. Manassas, Va.) and transferred to 96 well black clear bottom assay plate, centrifuged at 1,000 rpm for 3 mins and media removed and replaced with assay buffer (50 mM Iris pH8.0, 1 mM EDTA, 0.1% fatty acid free BSA). The reaction was initiated by addition of fluorescent substrate, AMC Arachidonoyl Amide (Cayman Chemical, Ann Arbor, Mich.) to 1 μM and reaction allowed to proceed for 2 hours at room temperature. Release of fluorescence was monitored in a CytoFluor Multiplate Reader. Cells expressing the highest amount of FAAH activity were selected for study with FAAH inhibitors.
(§3) (American Radiolabeled Chemicals; 1 mCi/ml) with FAAH (Life Sciences (1995), 56, 1999-2005 and Journal of Pharmacology and Experimented Therapeutics (1997), 283, 729-734), Analytical. Biochemistry (2003), 318, 270-5. In addition, routine assays were performed monitoring hydrolysis of arachidonyl-7-amino-4-methylcoumarin amide (AAMCA) by following increase in fluorescence upon release of 7-amino 4-methyl coumarin (λEX=355 nm, (λEM=460 nm). Analytical. Biochemistry (2005). 343, 143-51
(§4) Assays are performed on either cell lysate or microsome fractions prepared as described or in whole cell format employing either the fluorescent substrate AAMCA (Cayman chemical, Ann Arbor, Mich.,) or ^3H-anandmaide ([ETHANOLAMINE-1-3H]American Radiolabeled Chemicals; 1 mCi/ml). The cell lysate or microsome assay is performed in Costar black wall, clear bottom plates by adding FAAH_CF10 (whole cell, cell lysate or microsome) in assay buffer (50 mM Phosphate, pH 8.0, 1 mM EDTA, 200 mM KCl, 0.2% glycerol, 0.1% fatty acid free BSA) to each well, followed by either DMSO or compound and allowed to incubate at 22-25° C. for fifteen minutes. AAMCA substrate was used to achieve a final concentration of 1 μM and reaction allowed to proceed at room temperature for 1-3 hours. Fluorescent release as a measure of FAAH activity was monitored by reading the plate in a CytoFluor Multiplate Reader (Ex: […]). Whole cell assay is conducted with cells harvested after rinsing tissue culture flasks three times with Ca^++Mg^++ free PBS, incubating for 10 min in Enzyme free dissociation media and centrifuging for 5 minutes at 1,000 rpm in table top centrifuge. Cells are resuspended in assay buffer at desired cell number in (4×10^4 cells/assay in 96-well format; 1×10^4 cells/assay in 384-well format) and assayed as described.

The target in assay [2] is T1, human FAAH (Fatty Acid Amide Hydrolase). Nature of the assay: FAAH enzyme assay on lysate of CHO cells expressing human FAAH. It counts as biochemical.
Text: as §1
CHO cells expressing FAAH were used to prepare either crude cell lysate or microsome fractions. To harvest cells, tissue culture media was decanted, the monolayer washed three times with Ca^++Mg^++ free PBS and cells recovered after […] in enzyme free dissociation media (Millipore Corp, Billerica, Mass.). Cells were collected by centrifuging at 2000 rpm for 15 min. and the cell pellet re-suspended with 50 mM HEPES (pH 7.4) containing 1 mM EDTA and the protease inhibitors aprotinin (1 mg/ml) and leupeptin (100 μM). The suspension was sonicated at 4° C. and the cell lysate recovered after centrifuging at 12,000×g (14,600 rpm, SS34 rotor) for 20 min at 4° C. to form a crude pellet of cell debris, nuclei, peroxisomes, lysosomes, and mitochondria; the supernatant or cell lysate was used for FAAH enzyme assay. In some cases, microsomes fractions enriched in FAAH were prepared by centrifuging the cell lysate further at 27,000 rpm (100,000×g) in SW28 rotor for 50 minutes at 4° C. The pellet containing FAAH-enriched microsomes was re-suspend in 50 mM HEPES, (pH 7.4) 1 mM EDTA, and any remaining DNA sheared by passage of material through a 23 gauge needle and aliquots of enzyme were store at −80° C. prior to use.
as §3, §4
Alternatively, assays are performed using anandamide [ethanolamine 1-^3H] (specific activity of 10 Ci/mmol) diluted with cold anandamide to achieve a final assay concentration of 1 μM anandamide (˜50,000 cpm). Enzyme (CHO cell lysate, brain or liver homogenate) is incubated in assay buffer (50 mM Phosphate, pH 8.0, 1 mM EDTA, 200 mM KCl, 0.2% glycerol, 0.1% fatty acid free BSA) with inhibitor at 25° C. for 30 minutes. The reaction was terminated by addition of 2 volumes of chloroform:methanol (1:1) and mixed by vortexing. […]

Assay [3] has as its target T2, rat FAAH (Fatty Acid Amide Hydrolase) (Rattus norvegicus, UniProt P97612).
T2 sequence (P97612 1-579): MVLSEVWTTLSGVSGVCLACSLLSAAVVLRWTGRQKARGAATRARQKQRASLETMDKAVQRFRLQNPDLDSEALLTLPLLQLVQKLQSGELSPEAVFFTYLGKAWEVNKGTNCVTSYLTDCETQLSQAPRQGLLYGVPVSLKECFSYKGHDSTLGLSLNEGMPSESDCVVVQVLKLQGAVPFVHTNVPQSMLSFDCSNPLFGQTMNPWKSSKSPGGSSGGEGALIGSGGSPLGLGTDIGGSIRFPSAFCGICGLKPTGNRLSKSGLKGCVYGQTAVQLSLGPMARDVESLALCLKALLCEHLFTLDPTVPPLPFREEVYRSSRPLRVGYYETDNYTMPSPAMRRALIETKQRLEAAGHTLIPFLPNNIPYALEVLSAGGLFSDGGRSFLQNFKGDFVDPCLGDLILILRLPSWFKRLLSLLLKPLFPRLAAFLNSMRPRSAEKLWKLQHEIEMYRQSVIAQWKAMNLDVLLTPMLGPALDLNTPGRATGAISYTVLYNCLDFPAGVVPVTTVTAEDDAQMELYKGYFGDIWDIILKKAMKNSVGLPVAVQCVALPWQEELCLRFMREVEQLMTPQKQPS
Nature of the assay: FAAH whole cell assay, CHO cells expressing rat FAAH. Type of assay: cell-based.
Text: as §1, §2, §3, §4

Structures can show the parent of a compound that is named as a salt.

For orientation: IC50 means the midpoint of a concentration-inhibition curve. On to `Fc1ccc(-c2nc(-c3ccc(-c4ncon4)nc3)c(Sc3ccc(Cl)cn3)o2)cc1` [Ex 71, 5-Chloro-2-({2-(4-fluorophenyl)-4-[6-(1,2,4-oxadiazol-3-yl)pyridin-3-yl]-1,3-oxazol-5-yl}sulfanyl)pyridine], for which the IC50 is 30 nM in assay [1], 10 nM in assay [2] and 14 nM in assay [3].
In the case of `CS(=O)(=O)c1ccc(-c2nc(-c3ccccn3)oc2Sc2ccc(Cl)cc2)cc1` [Ex 56, 2-{5-[(4-chlorophenyl)thio]-4-[4-(methylsulfonyl)phenyl]-1,3-oxazol-2-yl}pyridine], the values for the IC50 in assay [1], in assay [2] and in assay [3] were 114 nM, 15 nM and 16 nM, respectively.
In the case of `CC(C)(O)c1ccc(-c2nc(-c3ccc(F)cc3)oc2Sc2ccc(Cl)cn2)cc1` [Ex 80, 2-(4-{5-[(5-Chloropyridin-2-yl)sulfanyl]-2-(4-fluorophenyl)-1,3-oxazol-4-yl}phenyl)propan-2-ol], the IC50 in assay [1] was 67 nM; in assay [2], 35 nM; in assay [3], 25 nM.
In the case of `CCn1cc(-c2nc(-c3ccc(C(C)(C)O)nc3)c(Sc3ccc(Cl)cc3)o2)cn1` [Ex 111, 2-(5-{5-[(4-chlorophenyl)sulfanyl]-2-(1-ethyl-1H-pyrazol-4-yl)-1,3-oxazol-4-yl)pyridin-2-yl}propan-2-ol], the IC50 worked out at 64 nM in assay [1], 11 nM in assay [2] and 24 nM in assay [3].
As to `CC(C)(O)c1ccc(-c2nc(-c3ccccn3)oc2Sc2ccc(F)cn2)cn1` [Ex 125], the IC50 was 2290 nM in assay [1], 93 nM in assay [2] and 680 nM in assay [3].
Turning to `CC(C)(O)c1ccc(-c2nc(-c3ccccn3)oc2Sc2ncc(Cl)cn2)cn1` [Ex 131], the IC50 in assay [1] came to 1120 nM; in assay [2], 140 nM; in assay [3] it was 782 nM.
Take `CC(C)(O)c1csc(-c2nc(-c3ccc(F)cc3)oc2Sc2ccc(Cl)cn2)n1` [Ex 100, 2-(2-{5-[(5-Chloropyridin-2-yl)sulfanyl]-2-(4-fluorophenyl)-1,3-oxazol-4-yl}-1,3-thiazol-4-yl)propan-2-ol]: the IC50 in assay [1] is 337 nM; in assay [2], 161 nM; in assay [3], 39 nM.
As for `CC(C)(O)c1ccc(-c2nc(-c3cncc(Cl)c3)oc2Sc2ccc(Cl)cn2)cn1` [Ex 119, 2-(5-{2-(5-Chloropyridin-3-yl)-5-[(5-chloropyridin-2-yl)sulfanyl]-1,3-oxazol-4-yl}pyridin-2-yl)propan-2-ol], the figures for the IC50 in assay [1], in assay [2] and in assay [3] were 47 nM, 28 nM and 20 nM, respectively.
The corresponding values for `CC(C)(O)c1ccc(-c2nc(-c3ccccn3)oc2Sc2ccc(Cl)cn2)cn1` [Ex 51, 2-(5-{5-[(5-chloropyridin-2-yl)thio]-2-pyridin-2-yl-1,3-oxazol-4-yl}pyridin-2-yl)propan-2-ol, trifluoroacetic acid salt] are 148 nM, 26 nM and 107 nM.
`C[S+]([O-])c1ccc(-c2nc(-c3ccc(F)cc3)oc2Sc2ccc(Cl)cn2)cn1` (racemic) [Ex 108, (R)-5-Chloro-2-({2-(4-fluorophenyl)-4-[6-(methylsulfinyl)pyridin-3-yl]-1,3-oxazol-5-yl}sulfanyl)pyridine and (S)-5-Chloro-2-({2-(4-fluorophenyl)-4-[6-(methylsulfinyl)pyridin-3-yl]-1,3-oxazol-5-yl}sulfanyl)pyridine]: the IC50 amounted to 20 nM in assay [1], 5 nM in assay [2] and 17 nM in assay [3].
Take `CC(C)(O)c1ccc(-c2nc(-c3ccc(F)cc3)oc2Sc2ncc(Cl)cn2)cn1` [Ex 20]: the results for the half-inhibitory concentration (IC50) in assay [1], in assay [2] and in assay [3] were 59 nM, 43 nM and 29 nM, respectively.
The corresponding values for `CC(C)(O)c1cnc(-c2nc(-c3ccc(F)cc3)oc2Sc2ccc(Cl)cn2)cn1` [Ex 3, 2-{5-[5-[(5-Chloropyridin-2-yl)thio]-2-(4-fluorophenyl)-1,3-oxazol-4-yl]pyrazin-2-yl}propan-2-ol] are 71 nM, 23 nM and 44 nM.
`CC(C)(O)c1ccc(-c2nc(-c3cc(F)c(F)cc3F)oc2Sc2ccc(Cl)cn2)cn1` [Ex 58]: the IC50 in assay [1] came out at 112 nM; in assay [2] it was 37 nM; in assay [3], 74 nM.

Source of the values: patent publication US20110021531A1, “OXAZOLE DERIVATIVES USEFUL AS INHIBITORS OF FAAH” (priority 2009, published 2011).
